For the assay, the system named is P. yoelii liver stage in HepG2-A16-CD81EGFP, imaging. Put plainly: Plasmodium liver-stage growth inhibition, dose response, imaging, Malaria Box, P. yoelii, HepG2-A16-CD81EGFP (AID 602156).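 Also: infected cells exposed to compound for 48 hours before fixation.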

Active and inactive are the calls of the source. No rule for the calls is given here. Bounds are passed on as bounds.

For orientation: IC50 means the midpoint of a concentration-inhibition curve. `CC[C@H]1CN2CCc3cc(OC)c(OC)cc3[C@@H]2C[C@@H]1C[C@H]1NCCc2cc(OC)c(OC)cc21`: the IC50 was 0.00749 µM.

On to `O=C(Nc1ccc(Oc2cccc(Oc3ccc(NC(=O)c4ccc(Br)o4)cc3)c2)cc1)c1ccc(Br)o1`, for which the IC50 was 0.433 µM.

For `CCC(C)(C)c1ccc(OCCCC[n+]2cccc(C)c2C)c(C(C)(C)CC)c1`, the IC50 was 0.0455 µM.

Take `CCN1C(=O)N(CC)C(NNC(N)=S)C1NNC(N)=S` (stereo not given): the IC50 is 0.0686 µM.

In the case of `CCCC(=O)N1CCN(c2nc(Cc3ccccc3)c3c(c2C#N)CC(C)(C)OC3)CC1`, the IC50 is 0.348 µM.

With `COc1ccccc1Cc1nc2ccccc2nc1SCC(=O)Nc1cccc(C(F)(F)F)c1`, the IC50 was > 10 µM (inactive).

Take `c1ccc(OCCOc2ccc(Nc3ccnc4cc5ccccc5cc34)cc2)cc1`: the 50% inhibitory concentration (IC50) was 0.0675 µM.

Turning to `CCCCc1c(CCC)c(=N)c2ccccc2n1C`, the IC50 was 0.244 µM.

`COc1ccc(C2Sc3ccccc3NC3=C2C(=O)c2ccccc23)cc1` (stereo not given): the half-inhibitory concentration (IC50) is 0.706 µM.

With `Cc1[nH]c2ccccc2c(=O)c1CC=C(Cl)Cl`, the IC50 was 0.13 µM.

For `COc1cccc(NC(=O)Cn2c(C)c(C#N)c3ccccc32)c1`, the IC50 was > 9.96 µM (inactive).

In the case of `O=C1C2=C(Nc3ccccc3SC2c2cccs2)c2ccccc21` (stereo not given), the IC50 was 0.0904 µM.

In the case of `O=C(c1cccc(Cl)c1)N1CCN(c2ccc([N+](=O)[O-])c(NC3CC3)c2)CC1`, the 50% inhibitory concentration (IC50) is 3.2 µM.

In the case of `CCNC(=O)C1CCN(c2cccc3c2C(=O)N(C2CCCCCCC2)C3=O)CC1`, the concentration for half-maximal inhibition (IC50) is 0.269 µM.

On to `O=[N+]([O-])c1cccc(C(Nc2nccs2)c2ccc3cccnc3c2O)c1` (stereo not given), for which the IC50 was 0.358 µM.

Take `O=C(Nc1ccc(-c2ccc(Cl)cc2)cc1)c1cccs1`: the IC50 was 0.151 µM.

As to `COc1ccc2nc(C)cc(Nc3ccc(Oc4ccc(Cl)c5ccccc45)c(Cl)c3)c2c1`, the IC50 is 0.267 µM.

On to `O=C1C(Nc2ccc(O)cc2)=CC(=NS(=O)(=O)c2cccs2)c2ccccc21`, for which the half-maximal inhibitory concentration (IC50) was 0.0856 µM.

With `CCOc1ccc(N2C(N)=NC(N)=NC2(C)C)cc1`, the IC50 was 0.0468 µM.

In the case of `COc1cccc(OC)c1C(=O)Nn1c(-c2cccc(C)c2)nc2ccccc2c1=O`, the IC50 was > 10 µM (inactive).

Consider `O=C1C2=C(Nc3ccccc3SC2c2ccccc2)c2ccccc21` (stereo not given), for which the IC50 was 0.0937 µM.

Consider `C=CCN1C(=Cc2cc[n+](C)cc2)Sc2ccccc21`, for which the 50% inhibitory concentration (IC50) was 0.0132 µM.

In the case of `O=C(Cn1ccc(=NCc2ccccc2)cc1)c1ccc(I)cc1`, the IC50 was 0.825 µM.

In the case of `COc1ccccc1Nc1nc(NCc2ccccc2)c2ccccc2n1`, the half-maximal inhibitory concentration (IC50) was 0.0913 µM.

As to `CCCn1c(-c2cccc(Br)c2)nc2ccccc21`, the IC50 is > 8.91 µM (inactive).

For the compound `CCOC(=O)C1(CC)CC(C)(C(=O)C[n+]2cccc(Br)c2)OC1=O` (stereo not given), the IC50 was > 10 µM (inactive).

Turning to `Cc1cc(Nc2cccc(F)c2)nc(NCc2ccccc2)n1`, the IC50 was 1.11 µM.

`CCCC1(CCC)NC(=S)N(c2ccc(C)c(C)c2)N1`: the IC50 was > 10 µM (inactive).

As for `Cc1cccc(C)c1N(CC(=O)NCc1ccco1)S(C)(=O)=O`, the IC50 is > 10 µM (inactive).

Regarding `O=C1Nc2ccccc2C12Nc1ccccc1-c1nc3ccccc3n12` (stereo not given), the IC50 is > 10 µM (inactive).

With `CCOc1ccc(Nc2nc(NCc3ccco3)c3ccccc3n2)cc1`, the IC50 is 0.105 µM.

For `COc1cccc(Nc2nc(NCCO)c3ccccc3n2)c1`, the half-inhibitory concentration (IC50) is 0.0623 µM.

With `COc1cc(C(=O)Nc2ccc3nc4n(c(=O)c3c2)CCCCC4)cc(OC)c1OC`, the IC50 was > 10 µM (inactive).

Consider `CCCCc1c(C)[nH]c2ccc(Br)cc2c1=O`, for which the IC50 is 0.0647 µM.

Take `CN(C)c1ccc(C(C=C2C=C(c3ccccc3)C=C(c3ccccc3)O2)=C2C=CC(=[N+](C)C)C=C2)cc1`: the half-maximal inhibitory concentration (IC50) was 0.0519 µM.

`CCCc1ccc(C(=O)NC(=O)c2ccccc2O)cc1`: the IC50 is 0.00418 µM.

On to `Cc1ccc2cc(C)c(Nc3ccc(Cl)cc3)nc2c1`, for which the half-maximal inhibitory concentration (IC50) was 0.148 µM.

`COc1ccc(C2CC(=O)C3=C(C2)NC(C)=C(C(=O)OC(C)C)C3c2cccc(C)c2)cc1OC` (stereo not given): the IC50 is 1.84 µM.

For the compound `CCN1CCN(c2c(C(=O)c3ccccc3)cnc3cc(OC)c(OC)cc23)CC1`, the IC50 is 0.367 µM.

On to `COc1ccc(C2N(Cc3ccccc3)c3ccccc3N2Cc2ccccc2)cc1`, for which the half-maximal inhibitory concentration (IC50) was 0.121 µM.

Turning to `Cc1ccc(S(=O)(=O)Nc2nc3n(n2)C(c2ccccc2)C=C(c2ccccc2)N3)cc1` (stereo not given), the IC50 is > 10 µM (inactive).

Regarding `COc1ccc(C(NC(=O)c2cccnc2)c2cc(Cl)c3cccnc3c2O)cc1` (stereo not given), the IC50 is 0.542 µM.

`O=[N+]([O-])c1ccc(N2CCCN(C(=S)Nc3ccc(F)cc3Br)CC2)nc1`: the IC50 was 4.62 µM.

For `Clc1cccc(Nc2nc(NCc3ccco3)c3ccccc3n2)c1`, the IC50 is 0.383 µM.

As to `Oc1c(C(Nc2ccccn2)c2cccc(Cl)c2Cl)ccc2cccnc12` (stereo not given), the 50% inhibitory concentration (IC50) was 0.402 µM.

With `COc1ccc2c(C)nc(Nc3nc(C)cc(-c4ccccc4)n3)nc2c1`, the IC50 is 6.66 µM.

Turning to `COc1ccccc1-n1c(C=Cc2cc(Br)ccc2O)nc2ccccc2c1=O`, the half-maximal inhibitory concentration (IC50) was 4.59 µM.

`CCCN(CCC)[P+](CCC)(c1ccc([P+](CCC)(N(CCC)CCC)N(CCC)CCC)cc1)N(CCC)CCC`: the IC50 is 0.28 µM.

Consider `CC1(C)N=C(N)N=C(N)N1c1ccc(Cl)cc1`, for which the half-maximal inhibitory concentration (IC50) is 0.00256 µM.

With `c1ccc(-c2ccc(-c3ccccn3)nc2)nc1`, the IC50 is 0.0394 µM.

`CCCCNC(=O)C1CCC(CN(Cc2c(Cl)cccc2Cl)S(=O)(=O)c2ccc(Br)cc2)CC1` (stereo not given): the IC50 is 0.124 µM.

Regarding `CC(=O)Nc1cccc(-c2cncc(-c3ccc(C(=O)O)cc3)n2)c1`, the IC50 was > 10 µM (inactive).

As for `C=CC[N+]1(CC#Cc2cccc3ccccc23)CCCCC1`, the 50% inhibitory concentration (IC50) is 0.908 µM.

`CCSc1ccc2ccccc2[n+]1CC`: the IC50 was > 10 µM (inactive).

`Cc1cc(NC(c2cccc(Br)c2)c2ccc3cccnc3c2O)no1` (stereo not given): the half-maximal inhibitory concentration (IC50) was 0.147 µM.

Turning to `COc1ccc(Nc2nc(NCc3ccccc3)c3ccccc3n2)cc1`, the IC50 was 0.305 µM.

Regarding `O=c1c2c(nc3cc(-c4ccc(Br)cc4)[nH]n13)CCCC2`, the IC50 was 0.499 µM.

Take `CC(=O)N(C1=C(N2CCOCC2)C(=O)c2ccccc2C1=O)c1ccc(I)cc1`: the IC50 is 0.602 µM.

Take `CCN(CC)CCCN(Cc1cc2cc(OC)c(OC)cc2[nH]c1=O)C(=S)Nc1cccc(Cl)c1`: the IC50 is 0.163 µM.

Turning to `CCOC(=O)c1cnc2ccc(OC)cc2c1NCc1cccs1`, the concentration for half-maximal inhibition (IC50) was 0.193 µM.

For the compound `Cc1ccnc(Nc2nc(-c3ccccn3)cs2)c1`, the IC50 is 0.0956 µM.

Take `Cc1oc2c(c1C(=O)NCCCn1ccnc1)C(=O)c1ccccc1C2=O`: the IC50 is 0.119 µM.

As to `CCCCC(CC)C(=O)N1CCN(C(CC)c2nc3ccccc3c(=O)n2C)CC1` (stereo not given), the half-inhibitory concentration (IC50) was 0.231 µM.

With `CCCCNC(=O)C(CC)Sc1nnc(-c2ccc(C)cc2)c(-c2ccc(C)cc2)n1` (stereo not given), the half-inhibitory concentration (IC50) was 0.291 µM.

As for `CCc1c(C)c(C#N)c2nc3ccccc3n2c1NCc1ccccc1`, the IC50 was > 9.6 µM (inactive).

As to `Cc1nc2ccccc2c(=O)n1-c1ccc([N+](=O)[O-])cc1`, the IC50 is > 10 µM (inactive).

With `Cc1cc(C(=O)Nc2cnn(Cc3ccc(Cl)cc3Cl)c2)no1`, the IC50 was 0.335 µM.

`CCCCC(=O)NC(c1cccc([N+](=O)[O-])c1)c1ccc2cccnc2c1O` (stereo not given): the IC50 was 0.449 µM.

Consider `CCOC(=O)C1=C(c2ccccc2)N=c2sc(=Cc3cc(C)n(-c4ccc(F)cc4)c3C)c(=O)n2C1c1cccc(OC)c1OC` (stereo not given), for which the IC50 is 2.45 µM.

Take `CC(C)(C)C1CCc2[nH]c3ccccc3c(=O)c2C1` (stereo not given): the half-inhibitory concentration (IC50) was 0.0983 µM.

As for `O=C(C1CC1)N1CCc2cc(Br)cc(S(=O)(=O)N3CCCC3)c21`, the IC50 is > 10 µM (inactive).

Regarding `CCOC(=O)CN(N=O)C1=C(N2CC2)C(=O)c2ccccc2C1=O`, the 50% inhibitory concentration (IC50) is 0.48 µM.

Turning to `N#Cc1ccc(NC(=O)NC2CC3CCCC(C2)N3CCc2ccccc2)cc1` (stereo not given), the IC50 was 0.497 µM.

As to `COc1ccc(C(c2ccc(N(C)C)cc2)c2ccc(N(C)C)cc2)cc1`, the IC50 is > 10 µM (inactive).

Consider `c1ccc(CSc2scnc2[P+](c2ccccc2)(c2ccccc2)c2ccccc2)cc1`, for which the IC50 was 0.0685 µM.

Consider `CCc1noc(C)c1C(=O)NCCN1Cc2ccccc2OC(c2ccsc2)C1` (stereo not given), for which the IC50 is > 10 µM (inactive).

For the compound `CCN(CC)CCCN(Cc1cc2ccc(C)cc2[nH]c1=O)C(=S)Nc1cccc(Cl)c1`, the concentration for half-maximal inhibition (IC50) is 0.448 µM.

For `O=C(c1cccc([N+](=O)[O-])c1)c1ccc(Cl)c(Cl)c1`, the IC50 was 3.81 µM.

Take `Oc1cccc2ccc[n+](CC(O)Cn3c4ccccc4c4ccccc43)c12` (stereo not given): the IC50 was 0.311 µM.

`O=C(c1cccs1)N1CCN(c2ccc([N+](=O)[O-])c(NC3CC3)c2)CC1`: the half-inhibitory concentration (IC50) was 0.692 µM.

Turning to `CCCN(C(=O)Nc1c(C(C)C)cccc1C(C)C)C(CC)c1nc2ccccc2c(=O)n1-c1cccc(C)c1` (stereo not given), the half-maximal inhibitory concentration (IC50) is 6.3 µM.

Consider `CN(C)c1ccc(-c2n(C)c3ccccc3[n+]2C)cc1`, for which the half-maximal inhibitory concentration (IC50) is 0.175 µM.

For `CCCN[P+](CC(C)C)(NCCC)NCCC`, the half-maximal inhibitory concentration (IC50) was 0.281 µM.

As to `Cc1ccc(N2C(N)=NC(N)=NC2(C)C)cc1`, the IC50 is 0.01 µM.

Take `CCOc1ccc(NC(=O)C(C)Sc2nc3ccccc3[nH]2)cc1` (stereo not given): the IC50 was > 10 µM (inactive).

As to `Cc1cccc(-c2cc3nc(C)c(C)c(=O)n3[nH]2)c1`, the IC50 was 1.1 µM.

As to `CC(=O)Nc1nc(C)c(-c2csc(Nc3ccc(C)cc3)n2)s1`, the concentration for half-maximal inhibition (IC50) was 1.89 µM.

Regarding `CC(=O)N(C)C1=C(N2CCCC2)C(=O)c2ccccc2C1=O`, the IC50 was 4.95 µM.

Consider `C/C=C/[P+](c1ccccc1)(c1ccccc1)c1ccccc1`, for which the IC50 is 0.0494 µM.

`CCn1c(/C=C/C=C2\N(C)c3ccccc3C2(C)C)[n+](Cc2ccccc2)c2ccccc21`: the IC50 was 0.00676 µM.

As to `COc1ccc(C2CC(=O)C3=C(C2)NC(C)=C(C(=O)OC2CCCC2)C3c2ccc([N+](=O)[O-])cc2)cc1OC` (stereo not given), the IC50 is 3.92 µM.

In the case of `COC(=O)C1=CNC=C(C(=O)OC)C1c1cc(OC)c(OC)c(OC)c1`, the IC50 is > 10 µM (inactive).

Regarding `O=C(NC(=C(Cl)Cl)[P+](c1ccccc1)(c1ccccc1)c1ccccc1)c1ccc(F)cc1`, the IC50 was 0.0145 µM.

In the case of `FC(F)(F)c1ccccc1NC(=S)N1CCCN(c2nc3ccc(Cl)cc3s2)CC1`, the 50% inhibitory concentration (IC50) is 1.62 µM.

Take `CCCCCCCCn1c(C)[n+](C)c2cc(Cl)c(Cl)cc21`: the IC50 is 0.419 µM.

For the origin of these results see PubChem BioAssay AID602156 (GNF / Scripps Winzeler lab, 2011).
